The numbers were not newly measured in patent publication US20070185065A1, “Combination therapy for coronary artery disease” (priority 2006, published 2007), which cites them from elsewhere.

Where two headings read alike, the source gives them in different places.

One may read the mortality as the share of the test organisms that died.

For series [1], the system named is patients with atherosclerosis not limited to MI. The conditions noted are these: compared to aspirin, three year period.
In series [2] the test system is patients with known CHD and an HDL-C concentration below 45 mg/dL already receiving a statin.
For series [3], the system named is proinflammatory cytokines and C-reactive protein (CRP). The conditions noted are these: six weeks of therapy.
The test system of series [4] is asymptomatic patients with an LVEF 40 percent after MI. Particulars: mean follow-up of 42 months.
Series [5] concerns patients with systolic left ventricular dysfunction (SLVD) post-MI.
The test system of series [6] is patients with chronic stable angina. The conditions noted are these: six weeks therapy, metoprolol 200 mg daily.
For series [7], the system named is patients with clinical evidence of HF post-MI.
For series [8], the system named is patients who have had an acute MI. Particulars: 160 mg twice daily.

For the compound `COC(=O)[C@H](c1ccccc1Cl)N1CCc2sccc2C1` [Clopidogrel, clopidogrel], the “fatal or nonfatal MI” value in series [1] is on record as “significant reduction”.
For `O=C(O)c1cccnc1` [ER niacin, niacin], the “mean increase in HDL-C” value in series [2] (1000 mg daily, on top of a statin) is recorded as 21%. Moreover, the HDL-C on treatment in series [2] (1000 mg daily, 1.0 mmol/L at baseline) is given as 1.22 mmol/L; in series [2] (1000 mg daily, 39 mg/dL at baseline), 47 mg/dL. Also, in series [2] (9.6 percent with placebo, p=0.20), the “cardiovascular events, percent of patients” value is reported as 3.8%. Moreover, the “increase in mean carotid intima-media thickness (CIMT)” value in series [2] (after one year of therapy, ultrasound, p=0.23, placebo 0.044 mm) is reported as 0.014 mm.
As for `CC(=O)Oc1ccccc1C(=O)O` [aspirin], the “markers of inflammation (proinflammatory cytokines and CRP)” value in series [3] is recorded as “significantly reduced”.
Consider `C[C@H](CS)C(=O)N1CCC[C@H]1C(=O)O` [captopril], for which, in series [4], the “reduction in hospitalization for HF” value is listed as 22%, the “reduction in the incidence of recurrent MI” value is listed as 25% and the “reduction in the incidence of severe HF” value is on record as 37%. The decrease in mortality in series [4] (versus placebo, 95% CI 3 to 32 percent) is on record as 19%. Further, in series [4] (25 percent for placebo), the mortality is listed as 20%.
Consider `COC(=O)[C@@H]1CC2=CC(=O)CC[C@]2(C)[C@@]23O[C@@H]2C[C@@]2(C)[C@@H](CC[C@@]24CCC(=O)O4)[C@H]13` [eplerenone], for which the “reduction in combined primary endpoint of CV mortality and CV hospitalization” value in series [5] (added to standard therapy) is on record as 13%. The “reduction in CV mortality” value in series [5] (added to standard therapy, P=0.005) is 17%. For the same compound, the “reduction in all-cause mortality” value in series [5] (added to standard therapy, P=0.008) is reported as 15%. The “further reduction in mortality” value in series [5] (subgroup already receiving ACE inhibitors and beta-blockers) is on record as 27%.
As for `COCCc1ccc(OCC(O)CNC(C)C)cc1` (centres unmarked) [metoprolol], the “increase in mean exercise time to 1-mm ST segment depression” value in series [6] (long-acting preparations, nifedipine 20 mg BID) is 70 s. Further, in series [6], the frequency of angina entry is reported as “reduced the frequency of angina”.
In the case of `CCOC(=O)[C@H](CCc1ccccc1)N[C@@H](C)C(=O)N1[C@H](C(=O)O)C[C@@H]2CCC[C@@H]21` [ramipril], in series [7] (603 United Kingdom patients followed for a mean of 59 months, 39 percent placebo), the mortality is recorded as 28%. In addition, in series [7] (average of 15 months follow-up), the “reduction in sudden death” value was 30% and the “reduction in the incidence of severe, resistant HF” value is given as 23%. Further, in series [7] (average of 15 months follow-up, versus placebo, 95% CI 11 to 40 percent), the decrease in mortality is on record as 27%. Further, the “incidence of severe, resistant HF” value in series [7] (average of 15 months follow-up, 18 percent for placebo) was 14%. Also, the mortality in series [7] (average of 15 months follow-up, 23 percent with placebo) is 17%. Besides, the “relative risk reduction (mortality)” value in series [7] (mean of 59 months, 95% CI 15 to 52 percent) is 36%.
With `CCCCC(=O)N(Cc1ccc(-c2ccccc2-c2nnn[nH]2)cc1)[C@H](C(=O)O)C(C)C` [valsartan], in series [8], the “reduction in mortality after an MI compared to an ACE inhibitor” value is reported as “as effective as an ACE inhibitor”.
